The results in this text go back to patent US11884675B2, “Heterocyclic compounds as triggering receptor expressed on myeloid cells 2 agonists and methods of use” (AMGEN INC., priority 2020, dated 2024).

Where only a bound is given, the exact number is not on record here.

Chain of hTREM2 (Q9NZC2 19-230): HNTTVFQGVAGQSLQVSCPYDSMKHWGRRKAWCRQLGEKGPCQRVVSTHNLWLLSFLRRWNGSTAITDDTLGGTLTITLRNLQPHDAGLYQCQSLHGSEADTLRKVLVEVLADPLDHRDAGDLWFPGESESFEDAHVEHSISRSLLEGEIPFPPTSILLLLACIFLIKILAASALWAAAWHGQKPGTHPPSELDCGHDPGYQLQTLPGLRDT
Chain of hTREM2 (O43914 22-113 partner): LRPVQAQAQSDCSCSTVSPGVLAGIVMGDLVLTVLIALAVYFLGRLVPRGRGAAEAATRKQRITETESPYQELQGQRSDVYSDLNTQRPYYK

In the assay the target is hTREM2 (Homo sapiens, UniProt Q9NZC2). Briefly: TREM2 activity by cellular Syk phosphorylation (AlphaScreen/AlphaLISA) in TREM2/DAP12-HEK cells, used for Examples 1-305. In kind it is cell-based. More on the design: expressed in transfected cells. The conditions noted are these: HEK293 Cells. A digest of the protocol:
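Single-cell-cloned HEK293 cells overexpressing TREM2 and DAP12, seeded 20 h, exposed to test articles (1% final DMSO) for 45 min at room temperature. Lysates read for phospho-Syk (Tyr525/526) vs total Syk by AlphaScreen. Signal normalised as percent of control between isotype IgG and 100 nM anti-TREM2 antibody; 4-parameter logistic fit.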
Background: Bead proximity is the source of the signal in Alpha formats.
Usually EC50 stands for the concentration at which the effect is half-maximal. A lower EC50 goes with a more potent agent. Take `Cc1cc([C@H]2CN(c3nc(-c4ccc(Cl)cc4F)c4ncc(C)nc4n3)CCO2)ccn1` [Example 3, 4-(4-chloro-2-fluorophenyl)-7-methyl-2-((2S)-2-(2-methyl-4-pyridinyl)-4-morpholinyl)pteridine]: the EC50 is at most 50 nM; the “hTREM2 Emax” value was “+++ (Emax>150 and ≤250)”.
As for `Cc1cnc2c(-c3ccc(Cl)cc3F)nc(N3CCO[C@@H](c4cnc(C)nc4)C3)nc2n1` [Example 4, 4-(4-chloro-2-fluorophenyl)-7-methyl-2-((2S)-2-(2-methyl-5-pyrimidinyl)-4-morpholinyl)pteridine], the EC50 lay within 50 to 500 nM; the “hTREM2 Emax” value was “+++ (Emax>150 and ≤250)”.
Turning to `Cc1cnc2c(-c3ccc(Cl)cc3F)nc(N3CCOC(C4CCOC4)C3)nc2n1` (centres unmarked) [Example 5, 4-(4-chloro-2-fluorophenyl)-7-methyl-2-(2-(tetrahydro-3-furanyl)-4-morpholinyl)pteridine], the EC50 was in the range of 500 to 3000 nM; the “hTREM2 Emax” value was “+++ (Emax>150 and ≤250)”.
For the molecule `Cc1cnc2c(-c3ccc(F)cc3F)nc(N3CCO[C@@H](c4cnn(C)c4)C3)nc2n1` [Example 6, 4-(2,4-difluorophenyl)-7-methyl-2-((2S)-2-(1-methyl-1H-pyrazol-4-yl)-4-morpholinyl)pteridine], the EC50 fell in the range of 50 to 500 nM; the “hTREM2 Emax” value is “+++ (Emax>150 and ≤250)”.
As for `Cc1cnc2c(-c3ccc(F)cc3F)nc(N3CCO[C@@H](c4cnn(C5CC5)c4)C3)nc2n1` [Example 7, 2-((2S)-2-(1-cyclopropyl-1H-pyrazol-4-yl)-4-morpholinyl)-4-(2,4-difluorophenyl)-7-methylpteridine], the EC50 was at most 50 nM; the “hTREM2 Emax” value is “+++ (Emax>150 and ≤250)”.
For `Cc1cc([C@H]2CN(c3nc(-c4ccc(F)cc4F)c4ncc(C)nc4n3)CCO2)ccn1` [Example 8, 4-(2,4-difluorophenyl)-7-methyl-2-((2S)-2-(2-methyl-4-pyridinyl)-4-morpholinyl)pteridine], the 50% effective concentration (EC50) is at most 50 nM; the “hTREM2 Emax” value was “++ (Emax>100 and ≤150)”.
As for `Cc1ccc(-c2nc(N3CCO[C@@H](c4cnn(C5CC5)c4)C3)nc3nc(C)cnc23)c(F)c1` [Example 9, 2-((2S)-2-(1-cyclopropyl-1H-pyrazol-4-yl)-4-morpholinyl)-4-(2-fluoro-4-methylphenyl)-7-methylpteridine], the EC50 was at most 50 nM; the “hTREM2 Emax” value was “+++ (Emax>150 and ≤250)”.
Regarding `Cc1ccc(-c2nc(N3CCO[C@@H](c4ccnc(C)c4)C3)nc3nc(C)cnc23)c(F)c1` [Example 10, 4-(2-fluoro-4-methylphenyl)-7-methyl-2-((2S)-2-(2-methyl-4-pyridinyl)-4-morpholinyl)pteridine], the EC50 was at most 50 nM; the “hTREM2 Emax” value was “+++ (Emax>150 and ≤250)”.
Regarding `Cc1cnc2c(n1)nc(N1CCO[C@@H](c3cnn(C)c3)C1)nc2[C@H]1C[C@H](C(F)(F)F)C1` [Example 11, 7-methyl-2-((2S)-2-(1-methyl-1H-pyrazol-4-yl)-4-morpholinyl)-4-(trans-3-(trifluoromethyl)cyclobutyl)pteridine], the EC50 is 50 to 500 nM; the “hTREM2 Emax” value is “++ (Emax>100 and ≤150)”.
On to `Cc1cnc2c(n1)nc(N1CCO[C@@H](c3cnn(C4CC4)c3)C1)nc2[C@H]1C[C@@H](C(F)(F)F)C1` [Example 12, 2-((2S)-2-(1-cyclopropyl-1H-pyrazol-4-yl)-4-morpholinyl)-7-methyl-4-(cis-3-(trifluoromethyl)cyclobutyl)pteridine], for which the EC50 is 500 to 3000 nM; the “hTREM2 Emax” value was “++ (Emax>100 and ≤150)”.
As for `Cc1cnc2c(n1)nc(N1CCO[C@@H](c3cnn(C4CC4)c3)C1)nc2[C@H]1C[C@H](C(F)(F)F)C1` [Example 13, 2-((2S)-2-(1-cyclopropyl-1H-pyrazol-4-yl)-4-morpholinyl)-7-methyl-4-(trans-3-(trifluoromethyl)cyclobutyl)pteridine], the EC50 was at most 50 nM; the “hTREM2 Emax” value is “+ (Emax>45 and ≤100)”.
Turning to `Cc1cc([C@H]2CN(c3nc4nc(C)cnc4c([C@H]4C[C@@H](C(F)(F)F)C4)n3)CCO2)ccn1` [Example 15, 7-methyl-2-((2S)-2-(2-methyl-4-pyridinyl)-4-morpholinyl)-4-(cis-3-(trifluoromethyl)cyclobutyl)pteridine], the EC50 was in the range of 50 to 500 nM; the “hTREM2 Emax” value is “++ (Emax>100 and ≤150)”.
For `Cc1cc([C@H]2CN(c3nc4nc(C)cnc4c([C@H]4C[C@H](C(F)(F)F)C4)n3)CCO2)ccn1` [Example 16, 7-methyl-2-((2S)-2-(2-methyl-4-pyridinyl)-4-morpholinyl)-4-(trans-3-(trifluoromethyl)cyclobutyl)pteridine], the EC50 is at most 50 nM; the “hTREM2 Emax” value was “+ (Emax>45 and ≤100)”.
For the molecule `Cc1nc2nc(N3CCO[C@@H](c4cnn(C)c4)C3)nc(-c3ccc(C(F)(F)F)cc3F)c2nc1C` [Example 17, 4-(2-fluoro-4-(trifluoromethyl)phenyl)-6,7-dimethyl-2-((2S)-2-(1-methyl-1H-pyrazol-4-yl)-4-morpholinyl)pteridine], the EC50 is at most 50 nM and the “hTREM2 Emax” value is reported as “++++ (Emax>250)”.
Take `Cc1nc2nc(N3CCO[C@@H](c4cnn(C)c4)C3)nc(-c3cc(F)c(F)c(F)c3)c2nc1C` [Example 18, 6,7-dimethyl-2-((2S)-2-(1-methyl-1H-pyrazol-4-yl)-4-morpholinyl)-4-(3,4,5-trifluorophenyl)pteridine]: the EC50 was at most 50 nM; the “hTREM2 Emax” value was “+++ (Emax>150 and ≤250)”.
As to `Cc1nc2nc(N3CCO[C@@H](c4cnn(C)c4)C3)nc(-c3ccc(C(F)(F)F)nc3)c2nc1C` [Example 19, 6,7-dimethyl-2-((2S)-2-(1-methyl-1H-pyrazol-4-yl)-4-morpholinyl)-4-(6-(trifluoromethyl)-3-pyridinyl)pteridine], the EC50 was at most 50 nM; the “hTREM2 Emax” value was “+++ (Emax>150 and ≤250)”.
`Cc1ccc(-c2nc(N3CCO[C@@H](c4cnn(C)c4)C3)nc3nc(C)c(C)nc23)cn1` [Example 20, 6,7-dimethyl-2-((2S)-2-(1-methyl-1H-pyrazol-4-yl)-4-morpholinyl)-4-(6-methyl-3-pyridinyl)pteridine]: the EC50 was 500 to 3000 nM; the “hTREM2 Emax” value is “+++ (Emax>150 and ≤250)”.
Take `Cc1nc2nc(N3CCO[C@@H](c4cnn(C)c4)C3)nc(-c3ccc(Cl)cc3F)c2nc1C` [Example 21, 4-(4-chloro-2-fluorophenyl)-6,7-dimethyl-2-((2S)-2-(1-methyl-1H-pyrazol-4-yl)-4-morpholinyl)pteridine]: the concentration for a half-maximal effect (EC50) was at most 50 nM and the “hTREM2 Emax” value was “++++ (Emax>250)”.
Regarding `Cc1nc2nc(N3CCO[C@@H](c4cnn(C5CC5)c4)C3)nc(-c3ccc(Cl)cc3F)c2nc1C` [Example 22, 4-(4-chloro-2-fluorophenyl)-2-((2S)-2-(1-cyclopropyl-1H-pyrazol-4-yl)-4-morpholinyl)-6,7-dimethylpteridine], the EC50 was at most 50 nM and the “hTREM2 Emax” value was “++++ (Emax>250)”.
Turning to `Cc1cc([C@H]2CN(c3nc(-c4ccc(Cl)cc4F)c4nc(C)c(C)nc4n3)CCO2)ccn1` [Example 23, 4-(4-chloro-2-fluorophenyl)-6,7-dimethyl-2-((2S)-2-(2-methyl-4-pyridinyl)-4-morpholinyl)pteridine], the half-maximal effective concentration (EC50) was at most 50 nM and the “hTREM2 Emax” value was “++++ (Emax>250)”.
On to `Cc1nc2nc(N3CCOC(C4CCOC4)C3)nc(-c3ccc(Cl)cc3F)c2nc1C` (centres unmarked) [Example 26, 4-(4-chloro-2-fluorophenyl)-6,7-dimethyl-2-(2-(tetrahydro-3-furanyl)-4-morpholinyl)pteridine], for which the EC50 is at most 50 nM and the “hTREM2 Emax” value is on record as “++++ (Emax>250)”.
For `Cc1nc2nc(N3CCO[C@@H](c4cnn(C)c4)C3)nc(N3C[C@@H]4[C@H](C3)C4(F)F)c2nc1C` [Example 27, 4-((1R,5S)-6,6-difluoro-3-azabicyclo[3.1.0]hexan-3-yl)-6,7-dimethyl-2-((2S)-2-(1-methyl-1H-pyrazol-4-yl)-4-morpholinyl)pteridine], the EC50 was 500 to 3000 nM; the “hTREM2 Emax” value is “++ (Emax>100 and ≤150)”.
`COC1CN(c2nc(N3CCO[C@@H](c4cnn(C)c4)C3)nc3nc(C)c(C)nc23)C1` [Example 28, 4-(3-methoxy-1-azetidinyl)-6,7-dimethyl-2-((2S)-2-(1-methyl-1H-pyrazol-4-yl)-4-morpholinyl)pteridine]: the half-maximal effective concentration (EC50) lay within 500 to 3000 nM; the “hTREM2 Emax” value was “+++ (Emax>150 and ≤250)”.
Regarding `Cc1nc2nc(N3CCO[C@@H](c4cnn(C)c4)C3)nc(N3CC(F)C3)c2nc1C` [Example 29, 4-(3-fluoro-1-azetidinyl)-6,7-dimethyl-2-((2S)-2-(1-methyl-1H-pyrazol-4-yl)-4-morpholinyl)pteridine], the EC50 was 3000 to 100000 nM.
As to `Cc1nc2nc(N3CCO[C@@H](c4cnn(C)c4)C3)nc(N3CC(C(F)(F)F)C3)c2nc1C` [Example 30, 6,7-dimethyl-2-((2S)-2-(1-methyl-1H-pyrazol-4-yl)-4-morpholinyl)-4-(3-(trifluoromethyl)-1-azetidinyl)pteridine], the concentration giving a half-maximal response (EC50) was 500 to 3000 nM; the “hTREM2 Emax” value was “++ (Emax>100 and ≤150)”.
`Cc1nc2nc(N3CCO[C@@H](c4cnn(C)c4)C3)nc(-c3ccc(F)cc3F)c2nc1C` [Example 31, 4-(2,4-difluorophenyl)-6,7-dimethyl-2-((2S)-2-(1-methyl-1H-pyrazol-4-yl)-4-morpholinyl)pteridine]: the EC50 was at most 50 nM; the “hTREM2 Emax” value is “+++ (Emax>150 and ≤250)”.
As to `Cc1nc2nc(N3CCO[C@@H](c4cnn(C5CC5)c4)C3)nc(-c3ccc(F)cc3F)c2nc1C` [Example 32, 2-((2S)-2-(1-cyclopropyl-1H-pyrazol-4-yl)-4-morpholinyl)-4-(2,4-difluorophenyl)-6,7-dimethylpteridine], the EC50 is at most 50 nM; the “hTREM2 Emax” value is “+++ (Emax>150 and ≤250)”.
